Source: patent US9526915B2, “Methods for regulating cell mitosis by inhibiting serine/threonine phosphatase” (priority 2008, dated 2016)
Several values for one entry are separate records, joined by “and”; a condition that tells them apart may be missing. Equal entries are not always repeated.

Columns and labels:
[1] = tested on: human glioblastoma cell line, U373; experiment: U373 growth in culture for 7 days, Compound 100 with standard cytotoxic drugs; assay type: cell-based; details: Compound 100 2.5 uM, cisplatin 0.1 uM, doxorubicin 0.01 uM, taxol 0.3 nM
Description: Cells were exposed to vehicle alone (control); Compound 100 at 2.5 uM; cisplatin at 0.1 uM; doxorubicin at 0.01 uM; or taxol at 0.3 nM alone or to the combination of Compound 100 plus each of the standard agents at the same concentrations. […] The expected percent inhibition at 7 days is the product of the inhibition by each agent alone.
Cells were exposed to vehicle alone (control); compound 100 at 2.5 μM, cisplatin at 0.1 μM; doxorubicin at 0.01 μM; or taxol at 0.3 nM alone or to the combination of compound 100 plus each of the standard agents at the same concentrations. […] The expected percent inhibition from a combination of drugs is calculated by multiplying the actual percent inhibition by each drug alone and comparing that product to the actual percent inhibition caused by the combination of the two drugs (Valeriote, 1975). The expected percent inhibition at 7 days is the product of the inhibition by each agent alone.

[2] = tested on: DAOY medulloblastoma cells; experiment: DAOY medulloblastoma s.c. xenografts in SCID mice; assay type: in vivo; details: treatment from day 6, by day 23
Description: DAOY medulloblastoma cells were implanted subcutaneously into the flanks of SCID mice. On day 6, mice were divided into 3 groups, one group receiving Compound 100, one group receiving Compound 102, and one group receiving vehicle alone. The subcutaneous tumor masses were measured on day 6, day 13, day 18, and on day 23 when all animals were sacrificed. […] In this model DAOY cells, when untreated, reached their maximum growth about 2 weeks after implantation with slow regression thereafterwards.

[3] = tested on: U87 glioblastoma multiforme cells; experiment: U87 s.c. xenografts in SCID mice, Compound 100; assay type: in vivo; details: treatment from day 7, measured to day 26
Description: SCID mice were implanted with 5×10^6 U87 cells subcutaneously. On day 7 treatment was begun on half of the animals. The size of the subcutaneous mass of tumor cells was measured weekly until the animals were sacrificed on day 26.

TCTP = TCTP in U87 xenografts by 2-dimensional gel electrophoresis; assay type: in vivo, SCID mice; details: 1.5 mg/kg IP, 4 hours
Description: SCID mice were implanted with 5×10^6 U87 cells subcutaneously. On day 26, the mice were given 1.5 mg/kg Compound 100 by IP injection. The animals were sacrificed after 4 hours treatment and the subcutaneous mass of tumor cells were removed for 2-dimensional gel electrophoretic analysis. […] In the left panel, TCTP subsequently identified by LC-MS-MS is circled and shown in an enlargement of the gel.
SCID mice were implanted with 5 million U87 cells subcutaneously. On day 26, the mice were administered 1.5 mg/kg of compound 100 by intraperitoneal injection. The animals were sacrificed after 4 hours of treatment and the subcutaneous mass of tumor cells were removed for 2-dimensional gel electrophoretic analysis.

[4] = tested on: DAOY medulloblastoma cells; experiment: Western blot of DAOY cell lysates for TCTP, p-Plk, total Plk; assay type: cell-based, human
Description: DAOY cells in culture were exposed to Compound 100 for 4 hours and for 24 hours, and stained for TCTP, p-Plk and total Plk on western blots.
DAOY cells in culture were exposed to compound 100 for 4 hours and for 24 hours, and stained for TCTP, p-plk (phosphorylated plk), and total plk on western blots.

DAOY cells = experiment: Immunofluorescence of alpha-tubulin and Plk-1 in DAOY cells; assay type: cell-based, human; details: 5 μM, 4 hours
Description: DAOY cells growing in tissue culture were exposed to 5 μM Compound 100 for 4 hours. The cells were rinsed, fixed, and stained for immunofluorescent recognition of alpha-tubulin and Plk-1. Control cells at the left show in the upper left panel diffuse staining for alpha-tubulin distributed throughout the cytoplasm. […] The lower right panel, stained for Plk-1, alpha-tubulin, and DNA show the almost pure extra nuclear location of homogeneously distributed alpha-tubulin. The right panel consists of 4 elements showing the effects of exposure to Compound 100.

human cancer cell lines = experiment: Cancer cell proliferation in cell culture; assay type: cell-based
U373 cells [5] = experiment: Western blots of U373 cells; assay type: cell-based, human; details: U373, 2 nM, 24 hours
Description: (§1) 5×10^6 U87MG cells were inoculated s.c. into each flank of 20 SCID mice. When the xenografts were 0.5+/−0.1 cm (day 0), 5 animals each received i.p. vehicle alone days 1-12 (50% DMSO/H20); compound 102 alone at 1.5 mg/kg days 1-3, 5-7, & 9-11; TMZ alone at 80 mg/kg days 4, 8, 12; or both drugs at the same doses and schedules. If xenografts reached 1800 mm^3, animals were sacrificed. […] B, Survival curve combining the data from the study shown in FIG. 12A, with a second identical study involving a total of 10 animals with two xenografts each. Disease-free survival was defined as no recurrence of either xenografts. […] As in 12A, except that xenografts of SH-SY5Y cells were implanted in one flank only and animals were treated with one additional cycle of drugs, i.e., compound 102 on days 13-15, TMZ, on day 16, and compound 102 plus TMZ on the same schedules. […] E, Western blots of U87 cells in culture 24 hours after exposure to compound 102 at 2.5 uM, TMZ at 25 uM or DOX at 2 uM, and compound 102 plus TMZ or DOX. F, Western blots of U373 cells 24 hours after exposure to compound 102 at 2.5 uM, doxorubicin at 2 uM, and both drugs. G, Western blots of U373 cells 24 hours after exposure to TMZ at 25 uM, okadaic acid at 2 nM, and both drugs.

U87MG xenografts = experiment: U87MG s.c. xenografts in SCID mice, compound 102 and TMZ; assay type: in vivo; details: same doses and schedules
Description: as §1
To determine the impact of altering DNA-damage defense mechanisms by inhibiting PP2A on the efficacy of cytotoxic chemotherapy, the effects of compound 102 combined with TMZ, a non-specific DNA-methylating drug, routinely used for the palliative treatment of GBM patients (Prados et al, 2008), were studied. SCID mice bearing s.c. xenografts of either the GBM line U87MG or the neuroblastoma line SH-SY5Y were treated with vehicle alone, compound 102 alone, TMZ alone, or both drugs at the same doses and schedules as when given alone.

U87MG cells = experiment: Cellular and molecular changes in U87MG cells (Western blots, IFS); assay type: cell-based, human; details: U87MG, 24 hours; compound 102 2.5 uM, TMZ 25 uM, DOX 2 uM
Description: D, Western blots of U87 lysates: TCTP, pPlk (Tre-210), total Plk, and β-actin. E, IFS of TCTP in U87 cells, F, Western blots p53 (ser-15), pMDM2 (ser-166), and β-actin and G, IFS of p53 (ser-15).
as §1
TCTP is an abundant, highly conserved, multifunctional protein that binds to and stabilizes microtubules before and after mitosis and also exerts potent anti-apoptotic activity (Bommer and Thiele, 2004; Yarm, 2002; Susini et al, 2008) (FIG. 11E).
[…] Akt-1 activation, however, may be anti- or proapoptotic depending on the context of cell signaling (Andrabi et al, 2007).
The effects of compound 102, TMZ, doxorubicin (DOX), a widely used anti-cancer drug that disrupts DNA replication, compound 102 plus TMZ, and compound 102 plus DOX on the amount of pAkt, p53 and MDM2 in U87MG, a cell line with wild-type p53, and in U373, a cell line with mutant p53 (Short et al, 2007) were assessed by Western blots.

U373 cells [6] = experiment: Cell cycle distribution of U373 cells by FACS; assay type: cell-based, human; details: U373, 48 hours
Description: Cells in unsynchronized logarithmic growth were exposed to vehicle or drug and adherent cells and cells in the media were collected. Harvested cells were fixed with 70% cold ethanol for 20 min at −20 degrees, washed with PBS, and stained with 10 ug/ml of PI and 1 ug/ml RNAse in TBS for 30 minutes and analyzed by FACS. A, Flow cytometry profiles of U87 cells after exposures to DMSO only, compound 102 only, 5 uM; TMZ only, 25 uM; compound 102 with TMZ combination, doxorubicin only, 2.0 uM and compound 102 with doxorubicin combination. B, Flow cytometry profiles of U373 cells. Exposures as in A, and C, Schema of proposed mechanisms of compound 102 enhancement of cancer chemotherapy.
We analyzed cell cycle patterns of U87MG and U373 cells 48 hours after exposure to TMZ or DOX alone and in combination with compound 102.

Question: With `CN1CCN(C(=O)C2C(C(=O)O)[C@H]3CC[C@@H]2O3)CC1` (some centres unmarked) [Compound 100] as the compound, how does the “inhibition at 7 days by agent alone” value [1] read?
Answer: Its value is 71%.

Question: And the “DAOY subcutaneous tumor mass” value [2]?
Answer: The value was “marked regression”.

Question: And the “U87 subcutaneous xenograft growth” value [3]?
Answer: The value was “Inhibition”.

Question: And the “TCTP concentration in U87 xenografts” value (TCTP)?
Answer: Its value is “diminution in TCTP”.

Question: What about the “Plk-1 phosphorylation (western blot)” value ([4]; 4 hours) of the same compound?
Answer: Its value is “increase”.

Question: What about the “TCTP (western blot)” value ([4]; 4 hours) of the same compound?
Answer: Its value is “decrease”.

Question: What about the “TCTP (western blot)” value ([4]; 24 hours) of the same compound?
Answer: The value was “no TCTP is detectable”.

Question: What about the alpha-tubulin distribution (DAOY cells) of the same compound?
Answer: Its alpha-tubulin distribution is “marked distortion of the homogeneous distribution”.

Question: What about the “inhibition of human cancer cell lines” value (human cancer cell lines; breast, colon, stomach, liver, ovary, prostate, brain, lung, leukemias, lymphomas) of the same compound?
Answer: The value was “dose dependent inhibition”.

Question: And the “effect of higher doses on tumor cells” value (human cancer cell lines; higher doses)?
Answer: Its value is “mitotic catastrophe and cell death”.

Question: What about the “growth of tumor cells at non-inhibitory doses” value (human cancer cell lines; submicromolar to very low micromolar concentrations) of the same compound?
Answer: The value was “slight but clear-cut stimulation”.

Question: `C=C1[C@@H](O)[C@@H]2O[C@]3(CC[C@H](/C=C/[C@@H](C)[C@@H]4CC(C)=C[C@@]5(O[C@H](C[C@@](C)(O)C(=O)O)CC[C@H]5O)O4)O3)CC[C@H]2O[C@@H]1[C@@H](O)C[C@H](C)[C@H]1O[C@@]2(CCCCO2)CC[C@H]1C` [Okadaic acid, okadaic acid, reference compound] was tested. Which “effects on pAkt-1 and on mutant p53” value (U373 cells [5]) did it give?
Answer: Its value is “mimicked the effects of compound 102”.

Question: How did the “time of sacrifice (xenografts reached 1800 mm^3)” value (U87MG xenografts) turn out when `Cn1nnc2c(C(N)=O)ncn2c1=O` [TMZ, temozolomide, reference compound] was run?
Answer: Its value is 7-9 week.

Question: For `N.N.[Cl][Pt][Cl]` [cisplatin], which “inhibition at 7 days by agent alone” value [1] is on record?
Answer: Its value is 93.5% and 93%.

Question: How did the MDM2 (U87MG cells) turn out when `COc1cccc2c1C(=O)c1c(O)c3c(c(O)c1C2=O)C[C@@](O)(C(=O)CO)C[C@@H]3O[C@H]1C[C@H](N)[C@H](O)[C@H](C)O1` [doxorubicin, reference compound] was run?
Answer: The MDM2 was “little effect”.

Question: What about the p53 (U87MG cells) of the same compound?
Answer: The p53 was “increased”.

Question: What about the pAkt-1 (U87MG cells) of the same compound?
Answer: The pAkt-1 was “decreased”.

Question: What about the G1 phase cells (U373 cells [6]; compound 102 5 uM, TMZ 25 uM, doxorubicin 2.0 uM) of the same compound?
Answer: Its G1 phase cells is “reduced”.

Question: What about the G2/M phase cells (U373 cells [6]; same concentrations) of the same compound?
Answer: Its G2/M phase cells is “reduced”.

Question: And the S phase cells (U373 cells [6]; same concentrations)?
Answer: Its S phase cells is “greatly increased”.
